{"source": "paper PMC10126473", "about": "(Frontiers in Pharmacology, 2023)", "key": {"physchem": {"experiment": "physchem", "conditions": "pH 7.4, aqueous buffer, kinetic from dmso stock", "procedure": "Samples were incubated at room temperature for 6 h and vacuum-filtered using Tecan Te-Vac to remove any precipitates. The concentration of the compound in the filtrate was measured via UV absorbance (λ: 250–498 nm). […] All compounds were tested in duplicates. The kinetic solubility (µg/mL) of compounds was calculated using the µSOL Evolution software."}, "[1]": {"conditions": "mouse, pH 7.4", "quoted_text": "(§7) The incubation was carried out at 37°C for 15, 30, and 60 min. The reaction in plasma or liver microsomes was quenched by adding 200 μL of cold acetonitrile (containing 100 ng/mL tolbutamide as internal standard).\n(§8) The mc was the microsome concentration used in the incubation (0.5 mg/mL). The substrate disappearance half-life (t1/2) was estimated by regression analysis of the semi-logarithmic (ln Conc vs. time) plots. […] The Vmax, in vitro,app, PDN-total and Km for PDN depletion in liver microsomes were estimated by the Michaelis-Menten model using GraphPad Prism version 8."}, "[2]": {"conditions": "human, in vivo, po, cited from earlier work"}, "[3]": {"experiment": "PBPK model (GastroPlus): simulation and model parameters incl. permeability surface product and scaled metabolic kinetics, human", "conditions": "conversion to Others"}, "[4]": {"conditions": "dog, in vivo; cited from earlier work"}, "[5]": {"conditions": "rats, acute toxicity test; ref Andrews et al., 1982; cited from earlier work"}, "[6]": {"conditions": "rat, in vivo, cited from earlier work"}, "[7]": {"conditions": "cited from earlier work"}, "[8]": {"conditions": "hamster, pH 7.4", "quoted_text": "as §7, §8"}, "in vivo [9]": {"experiment": "in vivo", "conditions": "male, C57BL/6, mouse, in vivo", "procedure": "The in-life study (Animal Study Protocol Number: NIH ORS-51) was conducted at the NIH Animal Facility by the Division of Veterinary Resources (DVR, Bethesda, MD). In this study, 25–35 g male C57BL/6 mice (Charles River Laboratories, Frederick, MD) were used. For the IV groups, 66 mice (33 mice per dosing group, 3 mice per timepoint) were used for a single bolus IV dose of 3 or 10 mg/kg of PDN via tail vein injection. […] The IV and PO doses were selected to obtain a complete concentration profile in plasma and tissues, based on a preliminary study. Animals were not fasted in this study. […] All dosing solutions were freshly prepared on the day of dosing. At designated time points, blood samples were collected, and mice were euthanized with CO2 in accordance with NIH ARAC Guidelines after blood collection. The death was ensured by cervical dislocation or transthoracic puncture. Lung, liver, adipose, brain, heart, small intestine, kidney, skeletal muscle, and spleen samples were obtained from mice. […] Tissue samples were rinsed with cold saline, dried on filtrate paper, weighed, and snap frozen by placing into dry ice after collection. All samples were stored at −80°C until the analysis. All blood samples were collected in K2EDTA tubes and centrifuged at 3000 g for 10 min at 4°C to obtain plasma. Plasma samples were transferred to tubes preloaded with NaF (final concentration at 5 mM in 200 µL plasma) and stored at −80°C until analysis.\n(§1) For fat tissue, an additional 3-fold volume of acetonitrile was added to the water homogenate and was vortexed in a shaker for another 30 min.\n(§2) A 10 μ aliquot of samples, blank controls (blank plasma or tissue homogenates), quality controls (QC), and standards were added into 200 μ acetonitrile solution with 100 ng/mL tolbutamide (internal standard, IS). All samples were then thoroughly shaken for 5 min to precipitate proteins. The samples were centrifuged at 3000 rpm and 4°C for 30 min. The supernatant was injected for UPLC-MS/MS analysis.\n(§3) The mobile phase consisted of 0.1% formic acid in water (A) and 0.1% formic acid in acetonitrile (B), the flow rate was 600 μL/min. […] All analyses were carried out using a Waters Acquity I-Class UPLC interfaced with a Waters Xevo TQ-S mass spectrometer. The mass spectrometer multiple reaction monitoring (MRM) experiment was operated with an ESI source at negative mode with spray voltage of 1 kV, and temperature of 600°C. Both Q1 and Q3 were set at unit resolution. […] The correlation coefficients of the calibration curves were all greater than 0.99. […] The linear range, precision and accuracy of QCs in various tissues and plasma are shown in Supplementary Table S1 and Supplementary Table S2.\n(§4) The area under the concentration vs. time curve (AUC) was calculated using the linear trapezoidal method. The terminal rate constant (λ) was obtained from the slope of at least three data points of the apparent terminal phase of the log linear concentration vs. time curve. AUC0–∞ was estimated as the sum of the AUC0–t (where t is the time of the last measurable concentration) and Ct/λ. […] Bioavailability (F) was calculated using ratios of dose-normalized AUC of PO and IV administration."}, "[10]": {"experiment": "PBPK model (GastroPlus): simulation and model parameters incl. permeability surface product and scaled metabolic kinetics, hamster", "conditions": "conversion to Others", "procedure": "(§5) CL in vitro,app expressed as mL/min/mg microsomes were scaled to the predicted CLintrinsic using scaling factor (SF), microsome level and liver weight as indicated below: CLintrinsic=CLin vitro,app×SF×liver weight×microsome level per gram liver\n(§6) All modeling and simulation were carried out using GastroPlus version 9.5 (Simulations Plus Inc., CA). Physiochemical parameters including blood-to-plasma ratio (Rbp), pKa, and logP were predicted by ADMET predictor (Simulations Plus Inc., CA). Physiologies of all species, including organ weights, volumes, tissue compositions, and blood perfusion rates, were generated by the program’s internal module. Tissue intracellular unbound fractions were generated by GastroPlus based on predicted or experimentally determined physiochemical and chemical-biological parameters including pKa, logP, plasma unbound fractions (Fup), Rbp, solubility, and PAMPA permeability. The PBPK model structure is illustrated in Figure 2 and its parameters are summarized in Supplementary Tables S3–6. The default absorption and dissolution model was applied and effective intestine permeability was predicted by a built-in correlation from the experimental PAMPA permeability result. Parameters including partition coefficients in tissue (Kp), CLintrinsic, and permeability surface area product (PStc) were estimated by fitting the model to experimental data using the optimization module in GastroPlus with objective function weights at 1/(y + ŷ)^2, where y is the observed value and ŷ is the predicted value.\nExperimental measurements of hamster plasma pharmacokinetics and lung concentrations were used in the model validation."}, "[11]": {"conditions": "human; cited from earlier work"}, "[12]": {"experiment": "PBPK model (GastroPlus): simulation and model parameters incl. permeability surface product and scaled metabolic kinetics, mouse", "conditions": "conversion to Others", "procedure": "as §5, §6\nModel parameter estimation of all plasma-tissue partition coefficients (Kp) was performed simultaneously using both the IV and PO datasets. […] The experimentally determined pharmacokinetic profiles were compared with the model simulations."}, "[13]": {"conditions": "cited from earlier work", "remark": "listed apart in the source"}, "[14]": {"conditions": "human, pH 7.4", "quoted_text": "as §7, §8"}, "UGT enzymes": {"test_system": "UGT enzymes", "conditions": "cited from earlier work"}, "in vivo [15]": {"experiment": "in vivo", "conditions": "hamster, in vivo", "procedure": "For the IV group, a single bolus IV dose of 3 mg/kg of PDN was administered to 24 hamsters (3 hamsters per time point). For the PO group, a dose of 30 mg/kg of PDN was administered via oral gavage to 21 hamsters (3 hamsters per time point). The formulation used for both IV and PO was 20% HP-β-CD in water (0.6 mg/mL PDN for IV and 3 mg/mL for PO). All dosing solutions were freshly prepared on the day of dosing. […] After collection, tissues were weighed and frozen. All blood samples were centrifuged at 4°C to obtain plasma. Plasma samples were transferred to tubes preloaded with NaF (final concentration at 5 mM in 200 µL plasma) and stored at −80°C until analysis.\nas §1, §2, §3, §4"}, "in vitro": {"experiment": "in vitro", "conditions": "PAMPA, pH 7.4", "procedure": "The test samples (0.05 mM test article in pH 7.4 buffer with 0.5% DMSO) were added in the donor compartment and were stirred using the Gutbox technology (Pion Inc.) to reduce the aqueous boundary layer. The test article concentrations in the donor and acceptor compartments were measured using a UV plate reader (Nano Quant, Infinite 200 PRO, Tecan Inc., Männedorf, Switzerland)."}, "[16]": {"conditions": "in vivo, predicted from in vitro liver parameters"}, "[17]": {"conditions": "male, LVG golden Syrian, po, 30 mg/kg"}}, "note": "Several values for one entry are separate records, joined by “and”; a condition that tells them apart may be missing. Equal entries are not always repeated. Where two headings read alike, the source gives them in different places. Marks after values point to notes of the source that are not given here."}
{"compound": "CCCSc1ccc2nc(NC(=O)OC)[nH]c2c1", "note": "[Albendazole, reference compound]", "values": [{"measurement": "solubility", "setting": "physchem", "value": "< 1", "unit": "µg/mL"}]}
{"compound": "O=C(Nc1ccc([N+](=O)[O-])cc1Cl)c1cc(Cl)ccc1O", "note": "[Nc, Niclosamide, reference compound]", "values": [{"measurement": "Liver Vmax", "setting": "[1]", "value": 0.07474, "unit": "mg/s/mg microsomes"}, {"measurement": "plasma Cmax", "setting": "[2]; 500 mg", "value": "35.7 to 182", "unit": "ng/mL"}, {"measurement": "serum maximal concentration (Cmax), Nc equivalent", "setting": "[2]; 2000 mg", "value": "250 to 6000", "unit": "ng/mL"}, {"measurement": "median plasma Cmax", "setting": "[2]", "value": 665, "unit": "ng/mL"}, {"measurement": "Liver Vmax", "setting": "[3]; in vivo (scaled)", "value": 0.0738, "unit": "mg/s/mg microsomes"}, {"measurement": "Gut Vmax", "setting": "[3]; [16]", "value": 0.0317, "unit": "mg/s/mg microsomes"}, {"measurement": "oral bioavailability", "setting": "[4]", "value": 0.54, "unit": "%"}, {"measurement": "oral LD50", "setting": "[5]", "value": "> 5000", "unit": "mg/kg"}, {"measurement": "oral bioavailability", "setting": "[6]; po", "value": 5.5, "unit": "%"}, {"measurement": "volume of distribution", "setting": "[6]", "value": "less than 0.4 L/kg"}, {"measurement": "PAMPA permeability", "setting": "[7]", "value": "<1 ^b 10^−6 cm/s"}, {"measurement": "Liver Vmax", "setting": "[8]", "value": 0.1152, "unit": "mg/s/mg microsomes"}, {"measurement": "AUC(0-inf)", "setting": "in vivo [9]; iv, 3 mg/kg", "value": 577, "unit": "ng·h/mL"}, {"measurement": "AUC(0-inf)", "setting": "in vivo [9]; iv, 10 mg/kg", "value": 1390, "unit": "ng·h/mL"}, {"measurement": "AUC(0-inf)", "setting": "in vivo [9]; po, 10 mg/kg", "value": 1610, "unit": "ng·h/mL"}, {"measurement": "Cmax", "setting": "in vivo [9]; po, 10 mg/kg", "value": 346, "unit": "ng/mL"}, {"measurement": "dose-normalized AUC0-∞ of Nc", "setting": "in vivo [9]; po, 10 mg/kg", "value": "216 (h*ng/mL)/(mg/kg)"}, {"measurement": "Liver Vmax", "setting": "[10]; in vivo (scaled)", "value": 0.1463, "unit": "mg/s/mg microsomes"}, {"measurement": "Gut Vmax", "setting": "[10]; [16]", "value": 0.0629, "unit": "mg/s/mg microsomes"}, {"measurement": "Fup (unbound fraction in plasma)", "setting": "[11]", "value": "0.16% (human) ^b"}, {"measurement": "Liver Vmax", "setting": "[12]; in vivo (scaled)", "value": 0.0949, "unit": "mg/s/mg microsomes"}, {"measurement": "Gut Vmax", "setting": "[12]; [16]", "value": 0.0408, "unit": "mg/s/mg microsomes"}, {"measurement": "Fup (unbound fraction in plasma)", "setting": "[13]", "value": "0.14% (rodent) ^b"}, {"measurement": "plasma protein binding", "setting": "[13]", "value": "> 99.8", "unit": "%"}, {"measurement": "Liver Vmax", "setting": "[14]", "value": 0.0581, "unit": "mg/s/mg microsomes"}, {"measurement": "Km", "setting": "UGT enzymes", "value": "0.09 to 1.67", "unit": "µM"}, {"measurement": "UGT-mediated hepatic CL in vitro,app", "setting": "UGT enzymes; mouse", "value": "0.18-0.21 mL/min/mg microsomes"}, {"measurement": "AUC0-∞ Observed", "setting": "in vivo [15]; iv, 3 mg/kg", "value": "1030 (98) h*ng/g"}, {"measurement": "AUC0-∞ Observed", "setting": "in vivo [15]; po, 30 mg/kg", "value": "5020 (294) h*ng/g"}, {"measurement": "AUC(0-inf)", "setting": "in vivo [15]; male, LVG golden Syrian, iv, 3 mg/kg", "value": 203, "unit": "ng·h/mL"}, {"measurement": "AUC(0-inf)", "setting": "in vivo [15]; [17]", "value": 1890, "unit": "ng·h/mL"}, {"measurement": "Cmax", "setting": "in vivo [15]; [17]", "value": "1170 ng/g and 623 ng/mL"}, {"measurement": "dose normalized plasma AUC0-∞ of Nc", "setting": "in vivo [15]; [17]", "value": "88 (h*ng/mL)/(mg/kg)"}, {"measurement": "Tmax", "setting": "in vivo [15]; male, LVG golden Syrian, po, 30 mg/kg, Tmax Observed", "value": 1, "unit": "h"}, {"measurement": "half-life", "setting": "in vivo [15]; male, LVG golden Syrian, po, 30 mg/kg, t1/2 Observed", "value": "~1.9", "unit": "h"}]}
{"compound": "Nc1ccc(/N=N/c2ccccc2)c(N)n1", "note": "[Phenazolpyridine, reference compound]", "values": [{"measurement": "solubility", "setting": "physchem", "value": 26, "unit": "µg/mL"}]}
{"compound": "CNC(=C[N+](=O)[O-])NCCSCc1ccc(CN(C)C)o1", "note": "[Ranitidine, reference compound]", "values": [{"measurement": "Papp at 0.05 mM", "setting": "in vitro", "value": "< 1", "unit": "×10⁻⁶ cm/s"}]}
